Measurements from ChEMBL document CHEMBL3774345, “Synthesis of new diarylamides with pyrimidinyl pyridine scaffold and evaluation of their anti-proliferative effect on cancer cell lines” (Bioorg Med Chem Lett, 2016).

Legend:
Assay type in all cases: functional
NCI-H322M = assay: Cytotoxicity against human NCI-H322M cells assessed as cell growth at 10 uM after 24 hrs by SRB assay; conditions: read-out: Activity
NCI-H460 = assay: Cytotoxicity against human NCI-H460 cells assessed as cell growth at 10 uM after 24 hrs by SRB assay; conditions: NCI-H460, 24 h, read-out: Activity
[1] = Cytotoxicity against human COLO205 cells assessed as cell growth at 10 uM after 24 hrs by SRB assay; conditions: COLO 205, 24 h, read-out: Activity
[2] = Cytotoxicity against human HCT116 cells assessed as cell growth at 10 uM after 24 hrs by SRB assay; conditions: HCT-116, 24 h, read-out: Activity
[3] = Cytotoxicity against human HCT15 cells assessed as cell growth at 10 uM after 24 hrs by SRB assay; conditions: HCT-15, 24 h, read-out: Activity
[4] = Cytotoxicity against human SW620 cells assessed as cell growth at 10 uM after 24 hrs by SRB assay; conditions: SW-620, 24 h, read-out: Activity
[5] = Cytotoxicity against human SF268 cells assessed as cell growth at 10 uM after 24 hrs by SRB assay; conditions: SF-268, 24 h, read-out: Activity
[6] = Cytotoxicity against human SF295 cells assessed as cell growth at 10 uM after 24 hrs by SRB assay; conditions: SF-295, 24 h, read-out: Activity
[7] = Cytotoxicity against human SF539 cells assessed as cell growth at 10 uM after 24 hrs by SRB assay; conditions: SF-539, 24 h, read-out: Activity
[8] = Cytotoxicity against human SNB75 cells assessed as cell growth at 10 uM after 24 hrs by SRB assay; conditions: SNB-75, 24 h, read-out: Activity
Malme-3M = assay: Cytotoxicity against human MALME-3M cells assessed as cell growth at 10 uM after 24 hrs by SRB assay; conditions: read-out: Activity
M14 = assay: Cytotoxicity against human M14 cells assessed as cell growth at 10 uM after 24 hrs by SRB assay; conditions: M14, 24 h, read-out: Activity
MDA-MB-435 = assay: Cytotoxicity against human MDA-MB-435 cells assessed as cell growth at 10 uM after 24 hrs by SRB assay; conditions: MDA-MB-435, 24 h, read-out: Activity
SK-MEL-2 = assay: Cytotoxicity against human SK-MEL-2 cells assessed as cell growth at 10 uM after 24 hrs by SRB assay; conditions: SK-MEL-2, 24 h, read-out: Activity
SK-MEL-28 = assay: Cytotoxicity against human SK-MEL-28 cells assessed as cell growth at 10 uM after 24 hrs by SRB assay; conditions: SK-MEL-28, 24 h, read-out: Activity
[9] = Cytotoxicity against human UACC257 cells assessed as cell growth at 10 uM after 24 hrs by SRB assay; conditions: UACC-257, 24 h, read-out: Activity
[10] = Cytotoxicity against human UACC62 cells assessed as cell growth at 10 uM after 24 hrs by SRB assay; conditions: UACC-62, 24 h, read-out: Activity
[11] = Cytotoxicity against human IGROV1 cells assessed as cell growth at 10 uM after 24 hrs by SRB assay; conditions: IGROV-1, 24 h, read-out: Activity
[12] = Cytotoxicity against human OVCAR3 cells assessed as cell growth at 10 uM after 24 hrs by SRB assay; conditions: OVCAR-3, 24 h, read-out: Activity
[13] = Cytotoxicity against human OVCAR4 cells assessed as cell growth at 10 uM after 24 hrs by SRB assay; conditions: OVCAR-4, 24 h, read-out: Activity
[14] = Cytotoxicity against human OVCAR5 cells assessed as cell growth at 10 uM after 24 hrs by SRB assay; conditions: OVCAR-5, 24 h, read-out: Activity
[15] = Cytotoxicity against human NCI-ADR-RES cells assessed as cell growth at 10 uM after 24 hrs by SRB assay; conditions: read-out: Activity
ACHN = assay: Cytotoxicity against human ACHN cells assessed as cell growth at 10 uM after 24 hrs by SRB assay; conditions: read-out: Activity
[16] = Cytotoxicity against human RXF393 cells assessed as cell growth at 10 uM after 24 hrs by SRB assay; conditions: RXF 393, 24 h, read-out: Activity
SN12C = assay: Cytotoxicity against human SN12C cells assessed as cell growth at 10 uM after 24 hrs by SRB assay; conditions: read-out: Activity
[17] = Cytotoxicity against human PC3 cells assessed as cell growth at 10 uM after 24 hrs by SRB assay; conditions: PC-3, 24 h, read-out: Activity
[18] = Cytotoxicity against human DU145 cells assessed as cell growth at 10 uM after 24 hrs by SRB assay; conditions: DU-145, 24 h, read-out: Activity
MCF7 = assay: Cytotoxicity against human MCF7 cells assessed as cell growth at 10 uM after 24 hrs by SRB assay; conditions: MCF7, 24 h, read-out: Activity
MDA-MB-231 = assay: Cytotoxicity against human MDA-MB-231 cells assessed as cell growth at 10 uM after 24 hrs by SRB assay; conditions: MDA-MB-231, 24 h, read-out: Activity
[19] = Cytotoxicity against human Hs 578T cells assessed as cell growth at 10 uM after 24 hrs by SRB assay; conditions: read-out: Activity
[20] = Cytotoxicity against human NCI60 cells assessed as growth inhibition at 10 uM after 24 hrs by SRB assay; conditions: NCI60, 24 h
CCRF-CEM = assay: Cytotoxicity against human CCRF-CEM cells assessed as cell growth at 10 uM after 24 hrs by SRB assay; conditions: read-out: Activity
[21] = Cytotoxicity against human HL-60(TB) cells assessed as cell growth at 10 uM after 24 hrs by SRB assay; conditions: HL-60, 24 h, read-out: Activity
K562 = assay: Cytotoxicity against human K562 cells assessed as cell growth at 10 uM after 24 hrs by SRB assay; conditions: K562, 24 h, read-out: Activity
[22] = Cytotoxicity against human RPMI8226 cells assessed as cell growth at 10 uM after 24 hrs by SRB assay; conditions: RPMI-8226, 24 h, read-out: Activity
EKVX = assay: Cytotoxicity against human EKVX cells assessed as cell growth at 10 uM after 24 hrs by SRB assay; conditions: read-out: Activity
[23] = Cytotoxicity against human HOP62 cells assessed as cell growth at 10 uM after 24 hrs by SRB assay; conditions: HOP-62, 24 h, read-out: Activity
[24] = Cytotoxicity against human HOP92 cells assessed as cell growth at 10 uM after 24 hrs by SRB assay; conditions: HOP-92, 24 h, read-out: Activity
NCI-H226 = assay: Cytotoxicity against human NCI-H226 cells assessed as cell growth at 10 uM after 24 hrs by SRB assay; conditions: NCI-H226, 24 h, read-out: Activity
NCI-H23 = assay: Cytotoxicity against human NCI-H23 cells assessed as cell growth at 10 uM after 24 hrs by SRB assay; conditions: NCI-H23, 24 h, read-out: Activity

| Compound | growth at 10 µM (NCI-H322M) | growth at 10 µM (NCI-H460) | growth at 10 µM [1] | growth at 10 µM [2] | growth at 10 µM [3] | growth at 10 µM [4] | growth at 10 µM [5] | growth at 10 µM [6] | growth at 10 µM [7] | growth at 10 µM [8] | growth at 10 µM (Malme-3M) | growth at 10 µM (M14) | growth at 10 µM (MDA-MB-435) | growth at 10 µM (SK-MEL-2) | growth at 10 µM (SK-MEL-28) | growth at 10 µM [9] | growth at 10 µM [10] | growth at 10 µM [11] | growth at 10 µM [12] | growth at 10 µM [13] | further results |
| --- | --- | --- | --- | --- | --- | --- | --- | --- | --- | --- | --- | --- | --- | --- | --- | --- | --- | --- | --- | --- | --- |
| O=C(Nc1cc(-c2cccnc2)nc(NCCCN2CCOCC2)n1)c1cc(Br)cc(C(F)(F)F)c1 | 58.2% | 56% | 1.11% | 35.7% | 6.87% | 75.4% | 60.9% | -22.8% | 66.5% | 72.1% | -7.83% | -72.1% | 9.55% | 81.3% | -49.8% | -27.1% | -6.13% | 63.1% | 80% | 62.2% | growth at 10 µM [14]: 81.4%; growth at 10 µM [15]: 56.6%; growth at 10 µM (ACHN): 75.6%; growth at 10 µM [16]: 52.8%; growth at 10 µM (SN12C): 67.2%; growth at 10 µM [17]: 57.7%; growth at 10 µM [18]: 82.5%; growth at 10 µM (MCF7): 38.6%; growth at 10 µM (MDA-MB-231): 32.7%; growth at 10 µM [19]: 54%; inhibition at 10 µM [20]: 57.2%; growth at 10 µM (CCRF-CEM): 42.8%; growth at 10 µM [21]: 48.5%; growth at 10 µM (K562): 8.84%; growth at 10 µM [22]: 30.2%; growth at 10 µM (EKVX): 77.4%; growth at 10 µM [23]: 69.4%; growth at 10 µM [24]: 34.6%; growth at 10 µM (NCI-H226): 73.8%; growth at 10 µM (NCI-H23): 80.9% |
| Cc1cc(Cl)ccc1C(=O)Nc1cc(-c2cccnc2)nc(NCCCN2CCOCC2)n1 | 102% | 110% | 101% | 99.8% | 104% | 99% | 101% | 97.9% | 91.4% | 91.3% | 104% | 101% | 101% | 106% | 95.3% | 95% | 102% | 109% | 111% | 97.7% | growth at 10 µM [14]: 94.1%; growth at 10 µM [15]: 106%; growth at 10 µM (ACHN): 100%; growth at 10 µM [16]: 101%; growth at 10 µM (SN12C): 111%; growth at 10 µM [17]: 107%; growth at 10 µM [18]: 97.6%; growth at 10 µM (MCF7): 90.1%; growth at 10 µM (MDA-MB-231): 97.3%; growth at 10 µM [19]: 96.9%; inhibition at 10 µM [20]: 1.46%; growth at 10 µM (CCRF-CEM): 101%; growth at 10 µM (K562): 113%; growth at 10 µM [22]: 104%; growth at 10 µM (EKVX): 99.8%; growth at 10 µM [23]: 91.5%; growth at 10 µM [24]: 95.9%; growth at 10 µM (NCI-H226): 77.6%; growth at 10 µM (NCI-H23): 96.7% |
